Like-named read-outs stand apart in the source and are kept apart here.
Key:
[1] = tested on: rats; experiment: Forced swim test (FST); type: in vivo, rat; conditions: FIG. 3A
[2] = tested on: rats; experiment: Locomotor activity test; type: in vivo, rat; conditions: FIG. 3B
[3] = tested on: rats; experiment: Intracranial self-stimulation (ICSS), lateral hypothalamic brain stimulation; type: in vivo, rat; conditions: 1.0 mg/kg, IP, 1-hour test sessions, FIG. 4
[4] = molecular target: T1, human kappa opioid receptor (Homo sapiens, UniProt P41145); experiment: biochemical; type: binding
T1 construct: expressed in transfected cells; host or cells: Chinese hamster ovary cells (CHO-hKOR), membranes
T1 sequence (P41145 whole entry): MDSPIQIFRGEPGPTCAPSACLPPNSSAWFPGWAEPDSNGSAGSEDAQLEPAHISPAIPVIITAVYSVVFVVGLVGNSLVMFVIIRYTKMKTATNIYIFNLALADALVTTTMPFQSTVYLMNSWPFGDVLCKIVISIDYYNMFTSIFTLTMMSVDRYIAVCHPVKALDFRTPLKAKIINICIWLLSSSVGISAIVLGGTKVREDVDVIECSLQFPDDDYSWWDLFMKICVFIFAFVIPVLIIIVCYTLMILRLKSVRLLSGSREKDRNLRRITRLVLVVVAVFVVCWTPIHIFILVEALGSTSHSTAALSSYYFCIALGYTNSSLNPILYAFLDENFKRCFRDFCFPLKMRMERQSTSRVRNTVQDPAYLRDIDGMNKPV

[5] = molecular target: T1, human kappa opioid receptor; experiment: biochemical; conditions: for Emax: 1 h, read-out: Efficacy

Structure (SMILES)	Ki [4] [nM]	EC50 [5] [nM]	Emax [5] [%]	also measured
COC(=O)[C@@H]1C[C@H](OC(C)=O)C(=O)C2[C@@]1(C)CC[C@H]1C(=O)O[C@H](c3ccoc3)C[C@]21C (stereo partly shown) [salvinorin A]	–	–	–	effect in the forced swim test [1]: depressive-like effects; effect on locomotor activity [2]: without affecting locomotor activity; ICSS thresholds [3]: significantly elevated ICSS thresholds
CCCO[C@H]1C[C@@H](C(=O)OC)[C@]2(C)CC[C@H]3C(=O)O[C@H](c4ccoc4)C[C@]3(C)C2C1=O (stereo partly shown) [Compound 16, 2-propoxy-salvinorin B]	28.7 ± 3	67.4 ± 9.9	100	–
CCC(=O)O[C@H]1C[C@@H](C(=O)OC)[C@]2(C)CC[C@H]3C(=O)O[C@H](c4ccoc4)C[C@]3(C)C2C1=O (stereo partly shown) [Compound 2, 2-propionyl-salvinorin B]	7.2 ± 0.5	20.4 ± 3.4	94	–
CCCCO[C@H]1C[C@@H](C(=O)OC)[C@]2(C)CC[C@H]3C(=O)O[C@H](c4ccoc4)C[C@]3(C)C2C1=O (stereo partly shown) [Compound 13, 2-n-butoxy-salvinorin B]	35.8 ± 5.1	104 ± 17	–	–
COC(=O)C1CC(N(C)C(C)=O)C(=O)C2C1(C)CCC1C(=O)OC(c3ccoc3)CC12C (stereo not shown) [Compound 214a, 2-(N-methylacetamide)-salvinorin]	3.2 ± 0.1	2.4 ± 0.7	103	–
CCNC(=O)O[C@H]1C[C@@H](C(=O)OC)[C@]2(C)CC[C@H]3C(=O)O[C@H](c4ccoc4)C[C@]3(C)C2C1=O (stereo partly shown) [Compound 20, 2-(O—(N-ethyl)formamide)-salvinorin B]	462 ± 20	> 1000	–	–
COC(=O)[C@@H]1C[C@H](OC(C)=O)C(=O)C2[C@@]1(C)CC[C@H]1C(=O)OC(C3CCOC3)C[C@]21C (stereo partly shown) [Compound 62]	19.3	68.3	117 ± 4.7	–
COC(=O)[C@@H]1C[C@H](NC(=O)NC(=O)C(Cl)(Cl)Cl)C(=O)C2[C@@]1(C)CC[C@H]1C(=O)O[C@H](c3ccoc3)C[C@]21C (stereo partly shown) [Compound 79]	227 ± 32	471 ± 110	103	–
COC(=O)C1CC(N(C)C)C(=O)C2C1(C)CCC1C(=O)OC(c3ccoc3)CC12C (stereo not shown) [Compound 211a, 2-(N,N-dimethyl)-salvinorin]	168 ± 10	240 ± 23	110	–
CCN[C@@H]1C[C@@H](C(=O)OC)[C@]2(C)CC[C@H]3C(=O)O[C@H](c4ccoc4)C[C@]3(C)C2C1=O (stereo partly shown) [Compound 18, 2-(N-ethylamino)-salvinorin]	28.9 ± 1	68.9 ± 5.3	–	–
CNC1CC(C(=O)OC)C2(C)CCC3C(=O)OC(c4ccoc4)CC3(C)C2C1=O (stereo not shown) [Compound 208a, 2-(N-methyl)-salvinorin]	328 ± 40	825 ± 93	82	–
CC(=O)O[C@H]1C[C@@H](C(=O)O)[C@]2(C)CC[C@H]3C(=O)O[C@H](c4ccoc4)C[C@]3(C)C2C1=O (stereo partly shown) [Compound 32, demethyl Salvinorin]	> 115	> 1230	–	–
CCC(=O)N(C)[C@@H]1C[C@@H](C(=O)OC)[C@]2(C)CC[C@H]3C(=O)O[C@H](c4ccoc4)C[C@]3(C)C2C1=O (stereo partly drawn) [Compound 81, 2-epi-(N-methylpropionamide)-salvinorin]	6.9 ± 1.1	12.6 ± 0.9	–	–
COC(=O)O[C@H]1C[C@@H](C(=O)OC)[C@]2(C)CC[C@H]3C(=O)O[C@H](c4ccoc4)C[C@]3(C)C2C1=O (stereo partly shown) [Compound 29]	> 91	> 1720	–	–
CCCC(=O)O[C@H]1C[C@@H](C(=O)OC)[C@]2(C)CC[C@H]3C(=O)O[C@H](c4ccoc4)C[C@]3(C)C2C1=O (stereo partly shown) [Compound 3, 2-butyryl-salvinorin B]	4.9 ± 0.6	9.9 ± 0.6	97	–
COC(=O)C1CC(NC(C)=O)C(=O)C2C1(C)CCC1C(=O)OC(c3ccoc3)CC12C (stereo not drawn) [Compound 212b, 2-epi-(acetamide)-salvinorin]	–	–	–	Ki ([4]; read-out: Ki): 332 ± 41 nM; EC50 ([5]; read-out: EC50): 339 ± 33 nM
COC(=O)[C@@H]1C[C@H](OC(N)=O)C(=O)C2[C@@]1(C)CC[C@H]1C(=O)O[C@H](c3ccoc3)C[C@]21C (stereo partly shown) [Compound 9, 2-(O-formamide)-salvinorin B]	3.2 ± 0.2	6.2 ± 1.4	99	–
C=CCO[C@H]1C[C@@H](C(=O)OC)[C@]2(C)CC[C@H]3C(=O)O[C@H](c4ccoc4)C[C@]3(C)C2C1=O (stereo partly shown) [Compound 14, 2-allyloxy-salvinorin B]	60.1 ± 5.1	145 ± 33	106	–
COC(=O)C1=CC(=O)C=C2[C@@]1(C)CC[C@H]1C(=O)O[C@H](c3ccoc3)C[C@]21C [Compound 70]	> 616	> 5150	–	–
COC(=O)[C@@H]1C[C@H](OC(=O)[C@H](C)N(C)C)C(=O)C2[C@@]1(C)CC[C@H]1C(=O)O[C@H](c3ccoc3)C[C@]21C (stereo partly shown) [Compound 92]	197 ± 19	539 ± 11	90	–
COC(=O)[C@@H]1C[C@H](OC(=O)CNC(=O)OCC2c3ccccc3-c3ccccc32)C(=O)C2[C@@]1(C)CC[C@H]1C(=O)O[C@H](c3ccoc3)C[C@]21C (stereo partly shown) [Compound 21]	> 277	> 4120	–	–
CC(=O)OC1CC(C(=O)NC(C)C(=O)OCc2ccccc2)C2(C)CCC3C(=O)OC(c4ccoc4)CC3(C)C2C1=O (stereo not shown) [Compound 98]	14.2 ± 0.8	46.7 ± 7.3	95	–
CCOC(=O)O[C@H]1C[C@@H](C(=O)OC)[C@]2(C)CC[C@H]3C(=O)O[C@H](c4ccoc4)C[C@]3(C)C2C1=O (stereo partly shown) [Compound 30]	> 78.9	> 1120	–	–
CCOC(=O)C1CC(OC(C)=O)C(=O)C2C1(C)CCC1C(=O)OC(c3ccoc3)CC12C (stereo not shown) [Compound 34]	365 ± 26	94.4 ± 4.1	110 ± 6.4	–
COC(=O)[C@@H]1C[C@@H](NC(C)C)C(=O)C2[C@@]1(C)CC[C@H]1C(=O)O[C@H](c3ccoc3)C[C@]21C (stereo partly drawn) [Compound 75, 2-epi-(N-isopropyl)-salvinorin]	2.3 ± 0.6	7.2 ± 0.3	–	–
COC(=O)[C@@H]1C[C@H](OC)C(=O)C2[C@@]1(C)CC[C@H]1C(=O)O[C@H](c3ccoc3)C[C@]21C (stereo partly shown) [Compound 4, 2-methoxy-salvinorin B]	220 ± 12	389 ± 76	98	–

Reference: US20070213394A1 (priority 2004, published 2007)
